Source: patent US9926304B2, “1-(arylmethyl)quinazoline-2,4(1H,3H)-diones as PARP inhibitors and the use thereof” (Impact Therapeutics, Inc., priority 2011, dated 2018)

Columns and labels:
[1] = test system: Human breast cancer cell line T47D; assay: Cell based caspase-3 activity assay: potentiation of MMS induced apoptosis; details: Homo sapiens, T47D, 24 h, T47D cells, 11.1 μg/ml MMS, 24 hours, intracellular caspase-3 activity; read-out: EC50 (nM), potentiation of the apoptosis inducing activity of MMS
How it was run: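 T47D cells were exposed for 24 h to compound plus a minimally apoptotic MMS dose (medium containing 11.1 μg/ml MMS). Lysates were incubated 3 h at 37 °C with (Ac-DEVD)2-R110 caspase-3 substrate (20 μM in added buffer) and read at ex 496/em 520 nm. EC50 came from a sigmoidal fit of RFU versus log concentration.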

[2] = test system: BRCA-2 deficient CAPAN-1 human pancreatic cancer cells; assay: MTT based cell viability assay: growth inhibition of BRCA-2 deficient CAPAN-1 cells; details: 240 h, compound alone, 10 day assay
From the text: Determination of the cell growth inhibiting activity of 1-(3-(4-(pyrimidin-2-yl)piperazine-1-carbonyl)benzyl)quinazoline-2,4(1H,3H)-dione and analogs on BRCA-2 deficient CAPAN-1 pancreatic duck cancer cells using a MTT based cell viability assay
BRCA-deficient cancer cells are sensitive to PARP inhibition. In the presence of PARP inhibitors, BRCA-deficient cancer cells could not grow and eventually will lead to death of cells. BRCA-2 deficient CAPAN-1 human pancreatic cancer cells were used to test the growth inhibiting activity of substituted 1-(arylmethyl)quinazoline-2,4(1H,3H)-diones. Briefly, CAPAN-1 cells are grown and maintained in IMEM medium supplemented with 20% FBS. The assay takes 10 days to finish. On day 1, 6000 CAPAN-1 cells are seeded to each well of a 96-well plate. The cells are incubated at 37° C. in a cell culture incubator overnight. In the next day, serial dilutions of compounds to be tested and reference compound (AZD2281) were prepared with a 1:3 and 1:10 fashion in DMSO. Ten-fold compound solutions were made by mixing 10 μl DMSO serial dilution solutions with 90 μl fresh growth medium. The cell culture medium was removed and 180 μl fresh media with FBS and 20 μl of compound solutions were added to each well. The final concentration of DMSO was 1%. Cells were then returned to the CO2 cell culture incubator and incubated at 37° C. for two days (day 3 and day 4). On day 5, the same procedure as what was done on day 2 was repeated. Cell culture medium was removed and fresh medium containing serial dilutions of compounds or reference compounds were added. Cells were returned to the CO2 cell culture incubator and incubated for two more days. On day 8, same procedure was repeated again and fresh medium containing the testing compounds or reference compounds were added and incubated for an additional 2 days. On day 10, 20 μl of MTT reagent (5 mg/ml) was added to each well of the cell culture plate and incubated for 4 h. The cell culture media was removed and 100 μl DMSO was added to each well. The 96-well cell culture plates were shaked horizontally for 10 min and readed in a Varioskan Flash plate reader (Thermo Fisher Scientific) at 520 and 690 nm. The obtained 520 nm absorbance readings subtracting corresponding 690 nm reading were analyzed using a commercial graphic software (GraphPad Prism 5) and plotted against the Log scale of the compound concentrations.

[3] = test system: SW620 human colorectal cancer cells; assay: MTT based cell viability assay: potentiation of the growth inhibiting activity of MMS; details: Homo sapiens, SW-620, 120 h, read-out: IC50 (nM), potentiation of the growth inhibiting activity of MMS, SW620 cells, 1.7 μg/ml MMS, 5 days (120 hours), MTT

| Compound | EC50 [1] [nM] | IC50 [2] [nM] | IC50 [3] [nM] |
| --- | --- | --- | --- |
| O=C(c1cc(Cn2c(=O)[nH]c(=O)c3ccccc32)ccc1F)N1CCN(c2nsc3ccccc23)CC1 [Example 43, 1-(3-(4-(Benzo[d]isothiazol-3-yl)piperazine-1-carbonyl)-4-fluorobenzyl)quinazoline-2,4(1H,3H)-dione] | 18 | 974 | 51 |
| O=C(c1ccc(F)c(Cn2c(=O)[nH]c(=O)c3ccccc32)c1)N1CCN(c2ccccn2)CC1 [Example 51, 1-(6-Fluoro-3-(4-(pyridin-2-yl)piperazine-1-carbonyl)benzyl)quinazoline-2,4(1H,3H)-dione] | 20 | 402 | 33 |
| O=C(c1ccc(Cl)c(Cn2c(=O)[nH]c(=O)c3ccccc32)c1)N1CCN(c2ncccn2)CC1 [Example 56, 1-(6-Chloro-3-(4-(pyrimidin-2-yl)piperazine-1-carbonyl)benzyl)quinazoline-2,4(1H,3H)-dione] | 16 | 1180 | 30 |
| O=C(c1cc(Cn2c(=O)[nH]c(=O)c3ccccc32)ccc1Cl)N1CCN(c2ncccn2)CC1 [Example 65, 1-(4-Chloro-3-(4-(pyrimidin-2-yl)piperazine-1-carbonyl)benzyl)quinazoline-2,4(1H,3H)-dione] | 373 | 3190 | 417 |
| O=C(c1cccc(Cn2c(=O)[nH]c(=O)c3ccccc32)n1)N1CCN(C(=O)C2CCCC2)CC1 [Example 69, 1-((2-(4-(Cyclopentylcarbonyl)piperazine-1-carbonyl)pyridin-6-yl)methyl)quinazoline-2,4(1H,3H)-dione] | 76 | 1980 | 352 |
| O=C(c1cccc(Cn2c(=O)[nH]c(=O)c3ccccc32)n1)N1CCN(c2ccccn2)CC1 [Example 70, 1-((2-(4-(Pyridin-2-yl)piperazine-1-carbonyl)pyridin-6-yl)methyl)quinazoline-2,4(1H,3H)-dione] | 34 | 339 | 136 |
| Cc1ccc2c(c1)c(=O)[nH]c(=O)n2Cc1cccc(C(=O)N2CCN(c3ncccn3)CC2)c1 [Example 81, 6-Methyl-1-(3-(4-(pyrimidin-2-yl)piperazine-1-carbonyl)benzyl)quinazoline-2,4(1H,3H)-dione] | 63 | 421 | 99 |
| Cc1ccc2c(c1)c(=O)[nH]c(=O)n2Cc1ccc(F)c(C(=O)N2CCN(c3ncccn3)CC2)c1 [Example 83, 1-(4-Fluoro-3-(4-(pyrimidin-2-yl)piperazine-1-carbonyl)benzyl)-6-methylquinazoline-2,4(1H,3H)-dione] | 21 | 746 | 72 |
| O=C(c1cccc(Cn2c(=O)[nH]c(=O)c3c(Cl)cccc32)c1)N1CCN(c2ncccn2)CC1 [Example 100, 5-Chloro-1-(3-(4-(pyrimidin-2-yl)piperazine-1-carbonyl)benzyl)quinazoline-2,4(1H,3H)-dione] | 70 | 312 | 202 |
| O=C(c1cccc(Cn2c(=O)[nH]c(=O)c3c(Cl)cccc32)c1)N1CCN(C(=O)C2CCCC2)CC1 [Example 101, 5-Chloro-1-(3-(4-(cyclopentylcarbonyl)piperazine-1-carbonyl)benzyl)quinazoline-2,4(1H,3H)-dione] | 20 | 1050 | 117 |
| O=C(c1cc(Cn2c(=O)[nH]c(=O)c3c(Cl)cccc32)ccc1F)N1CCN(c2ncccn2)CC1 [Example 103, 5-Chloro-1-(4-fluoro-3-(4-(pyrimidin-2-yl)piperazine-1-carbonyl)benzyl)quinazoline-2,4(1H,3H)-dione] | 29 | 665 | 45 |

Now those with a lower EC50 [1], led by results:

| EC50 [1] [nM] | IC50 [2] [nM] | IC50 [3] [nM] | Compound |
| --- | --- | --- | --- |
| 2.2 | 208 | 11 | O=C(c1cc(Cn2c(=O)[nH]c(=O)c3ccccc32)ccc1F)N1CCN(C(=O)C2CCCCC2)CC1 [Example 41, 1-(3-(4-(Cyclohexylcarbonyl)piperazine-1-carbonyl)-4-fluorobenzyl)quinazoline-2,4(1H,3H)-dione] |
| 11 | 2540 | 78 | O=C(c1cc(Cn2c(=O)[nH]c(=O)c3ccccc32)ccc1F)N1CCN(c2cnccn2)CC1 [Example 42, 1-(4-Fluoro-3-(4-(pyrazin-2-yl)piperazine-1-carbonyl)benzyl)quinazoline-2,4(1H,3H)-dione] |
| 11 | 668 | 34 | O=C(c1ccccc1)N1CCN(C(=O)c2cc(Cn3c(=O)[nH]c(=O)c4ccccc43)ccc2F)CC1 [Example 45, 1-(3-(4-Benzoylpiperazine-1-carbonyl)-4-fluorobenzyl)quinazoline-2,4(1H,3H)-dione] |
| 6.6 | 446 | 21 | O=C(c1cccs1)N1CCN(C(=O)c2cc(Cn3c(=O)[nH]c(=O)c4ccccc43)ccc2F)CC1 [Example 46, 1-(4-Fluoro-3-(4-(thiophene-2-carbonyl)piperazine-1-carbonyl)benzyl)quinazoline-2,4(1H,3H)-dione] |
| 8.2 | 168 | 56 | O=C(c1ccc(F)c(Cn2c(=O)[nH]c(=O)c3ccccc32)c1)N1CCN(C(=O)C2CCCC2)CC1 [Example 48, 1-(3-(4-(Cyclopentylcarbonyl)piperazine-1-carbonyl)-6-fluorobenzyl)quinazoline-2,4(1H,3H)-dione] |
| 10 | 421 | 32 | O=C(c1ccc(F)c(Cn2c(=O)[nH]c(=O)c3ccccc32)c1)N1CCN(C(=O)C2CCCCC2)CC1 [Example 49, 1-(3-(4-(Cyclohexylcarbonyl)piperazine-1-carbonyl)-6-fluorobenzyl)quinazoline-2,4(1H,3H)-dione] |
| 13 | 173 | 37 | O=C(c1ccc(F)c(Cn2c(=O)[nH]c(=O)c3ccccc32)c1)N1CCN(c2ncccn2)CC1 [Example 50, 1-(6-Fluoro-3-(4-(pyrimidin-2-yl)piperazine-1-carbonyl)benzyl)quinazoline-2,4(1H,3H)-dione] |
| 7.6 | 291 | 25 | Cc1ccc2c(c1)c(=O)[nH]c(=O)n2Cc1ccc(F)c(C(=O)N2CCN(C(=O)C3CCCC3)CC2)c1 [Example 85, 1-(3-(4-(Cyclopentylcarbonyl)piperazine-1-carbonyl)-4-fluorobenzyl)-6-methylquinazoline-2,4(1H,3H)-dione] |
| 2.6 | 452 | 8.3 | O=C(c1cc(Cn2c(=O)[nH]c(=O)c3c(Cl)cccc32)ccc1F)N1CCN(C(=O)C2CCCC2)CC1 [Example 104, 5-Chloro-1-(3-(4-(cyclopentylcarbonyl)piperazine-1-carbonyl)-4-fluorobenzyl)quinazoline-2,4(1H,3H)-dione] |
| 14 | 97 | 7.9 | O=C(c1cc(Cn2c(=O)[nH]c(=O)c3c(Cl)cccc32)ccc1F)N1CCN(C(=O)C2CCCCC2)CC1 [Example 105, 5-Chloro-1-(3-(4-(cyclohexylcarbonyl)piperazine-1-carbonyl)-4-fluorobenzyl)quinazoline-2,4(1H,3H)-dione] |
| 9.5 | 161 | 6.3 | O=C(c1cccs1)N1CCN(C(=O)c2cc(Cn3c(=O)[nH]c(=O)c4c(Cl)cccc43)ccc2F)CC1 [Example 107, 5-Chloro-1-(4-fluoro-3-(4-(thiophene-2-carbonyl)piperazine-1-carbonyl)benzyl)quinazoline-2,4(1H,3H)-dione] |
| 1.7 | 77 | 27 | O=C(c1cccc(Cn2c(=O)[nH]c(=O)c3cc(Cl)ccc32)c1)N1CCN(c2ncccn2)CC1 [Example 111, 6-Chloro-1-(3-(4-(pyrimidin-2-yl)piperazine-1-carbonyl)benzyl)quinazoline-2,4(1H,3H)-dione] |
